Experimental data taken from the supplement of paper PMC10307832.

Tests used:
Test in all cases: relative viability (nuclei count vs DMSO), 5 days (fraction); higher = more cells survive
COR-L23 = system: COR-L23
Procedure, shortened: (§1)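 Lung cancer cell lines in 1536-well plates got either a single drug or a fixed anchor-drug dose together with five library-drug doses (not always all listed) in √10 steps, by pin tool, on the day after seeding. Nuclei were counted after 5 days, and relative viability is the treated-to-vehicle ratio of nuclei counts. Values are medians of duplicate plates.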

ChaGo-K-1 = system: ChaGo-K-1
Procedure, shortened: as §1

EPLC-272H = system: EPLC-272H
Procedure, shortened: as §1

H3255 = system: H3255
Procedure, shortened: as §1

HARA = system: HARA
Procedure, shortened: as §1

HCC-78 = system: HCC-78
Procedure, shortened: as §1

HOP-62 = system: HOP-62
Procedure, shortened: as §1

LCLC-97TM1 = system: LCLC-97TM1
Procedure, shortened: as §1

LXF-289 = system: LXF-289
Procedure, shortened: as §1

NCI-H1395 = system: NCI-H1395
Procedure, shortened: as §1

NCI-H1437 = system: NCI-H1437
Procedure, shortened: as §1

NCI-H1650 = system: NCI-H1650
Procedure, shortened: as §1

NCI-H1666 = system: NCI-H1666
Procedure, shortened: as §1

NCI-H1793 = system: NCI-H1793
Procedure, shortened: as §1

NCI-H1944 = system: NCI-H1944
Procedure, shortened: as §1

NCI-H2085 = system: NCI-H2085
Procedure, shortened: as §1

NCI-H2087 = system: NCI-H2087
Procedure, shortened: as §1

NCI-H2126 = system: NCI-H2126
Procedure, shortened: as §1

NCI-H3122 = system: NCI-H3122
Procedure, shortened: as §1

NCI-H441 = system: NCI-H441
Procedure, shortened: as §1

NCI-H596 = system: NCI-H596
Procedure, shortened: as §1

NCI-H661 = system: NCI-H661
Procedure, shortened: as §1

PC-14 = system: PC-14
Procedure, shortened: as §1

`CCNC(=O)c1noc(-c2cc(C(C)C)c(O)cc2O)c1-c1ccc(CN2CCOCC2)cc1` [Luminespib] + COc1cc2c(Oc3ccc(NC(=O)C4(C(=O)Nc5ccc(F)cc5)CC4)cc3F)ccnc2cc1OCCCN1CCOCC1 [Foretinib] (partner 0.25 µM) was tested, and the relative viability (COR-L23; first compound 0.002 µM) was 1.06, the relative viability (COR-L23; first compound 0.006325 µM) was 0.894 and the relative viability (COR-L23; first compound 0.02 µM) was 1.12. It also gave a relative viability (COR-L23; first compound 0.06325 µM) of 0.124, a relative viability (COR-L23; first compound 0.2 µM) of 0.105 and a relative viability (ChaGo-K-1; first compound 0.002 µM) of 0.889. The relative viability (ChaGo-K-1; first compound 0.006325 µM) was 0.92, the relative viability (ChaGo-K-1; first compound 0.02 µM) was 1.02 and the relative viability (ChaGo-K-1; first compound 0.06325 µM) was 0.37. The relative viability (ChaGo-K-1; first compound 0.2 µM) was 0.299, the relative viability (EPLC-272H; first compound 0.002 µM) was 0.74 and the relative viability (EPLC-272H; first compound 0.006325 µM) was 0.666. The relative viability (EPLC-272H; first compound 0.06325 µM) was 0.625, the relative viability (EPLC-272H; first compound 0.2 µM) was 0.0989 and the relative viability (H3255; first compound 0.002 µM) was 0.785. For the same compound, the relative viability (H3255; first compound 0.006325 µM) was 0.821, the relative viability (H3255; first compound 0.06325 µM) was 0.833 and the relative viability (H3255; first compound 0.2 µM) was 0.329. It also gave a relative viability (HARA; first compound 0.002 µM) of 1.09, a relative viability (HARA; first compound 0.006325 µM) of 0.728 and a relative viability (HARA; first compound 0.02 µM) of 1.08. It also gave a relative viability (HARA; first compound 0.06325 µM) of 0.922, a relative viability (HARA; first compound 0.2 µM) of 0.785 and a relative viability (HCC-78; first compound 0.002 µM) of 0.627. It also gave a relative viability (HCC-78; first compound 0.006325 µM) of 0.593, a relative viability (HCC-78; first compound 0.06325 µM) of 0.609 and a relative viability (HCC-78; first compound 0.2 µM) of 0.598. The relative viability (HOP-62; first compound 0.002 µM) was 1.09, the relative viability (HOP-62; first compound 0.006325 µM) was 1.11 and the relative viability (HOP-62; first compound 0.02 µM) was 1.17. It also gave a relative viability (HOP-62; first compound 0.06325 µM) of 0.587, a relative viability (HOP-62; first compound 0.2 µM) of 0.145 and a relative viability (LCLC-97TM1; first compound 0.002 µM) of 0.949. It also gave a relative viability (LCLC-97TM1; first compound 0.006325 µM) of 0.915, a relative viability (LCLC-97TM1; first compound 0.02 µM) of 0.935 and a relative viability (LCLC-97TM1; first compound 0.06325 µM) of 0.952. It also gave a relative viability (LCLC-97TM1; first compound 0.2 µM) of 0.626, a relative viability (LXF-289; first compound 0.002 µM) of 0.993 and a relative viability (LXF-289; first compound 0.006325 µM) of 0.979. It also gave a relative viability (LXF-289; first compound 0.02 µM) of 1.2, a relative viability (LXF-289; first compound 0.06325 µM) of 0.547 and a relative viability (LXF-289; first compound 0.2 µM) of 0.323. For the same compound, the relative viability (NCI-H1395; first compound 0.002 µM) was 1.04, the relative viability (NCI-H1395; first compound 0.006325 µM) was 0.941 and the relative viability (NCI-H1395; first compound 0.02 µM) was 0.805. The relative viability (NCI-H1395; first compound 0.06325 µM) was 0.568, the relative viability (NCI-H1395; first compound 0.2 µM) was 0.345 and the relative viability (NCI-H1437; first compound 0.002 µM) was 1.3. It also gave a relative viability (NCI-H1437; first compound 0.006325 µM) of 1.2, a relative viability (NCI-H1437; first compound 0.02 µM) of 1.33 and a relative viability (NCI-H1437; first compound 0.06325 µM) of 1.24. It also gave a relative viability (NCI-H1437; first compound 0.2 µM) of 0.526, a relative viability (NCI-H1650; first compound 0.002 µM) of 1.26 and a relative viability (NCI-H1650; first compound 0.006325 µM) of 1.17. For the same compound, the relative viability (NCI-H1650; first compound 0.02 µM) was 1.23, the relative viability (NCI-H1650; first compound 0.06325 µM) was 0.158 and the relative viability (NCI-H1650; first compound 0.2 µM) was 0.164. The relative viability (NCI-H1666; first compound 0.002 µM) was 0.988, the relative viability (NCI-H1666; first compound 0.006325 µM) was 0.904 and the relative viability (NCI-H1666; first compound 0.02 µM) was 0.986. For the same compound, the relative viability (NCI-H1666; first compound 0.06325 µM) was 0.94, the relative viability (NCI-H1666; first compound 0.2 µM) was 0.967 and the relative viability (NCI-H1793; first compound 0.002 µM) was 0.739. The relative viability (NCI-H1793; first compound 0.006325 µM) was 0.892, the relative viability (NCI-H1793; first compound 0.02 µM) was 0.472 and the relative viability (NCI-H1793; first compound 0.06325 µM) was 0.551. It also gave a relative viability (NCI-H1793; first compound 0.2 µM) of 0.189, a relative viability (NCI-H1944; first compound 0.002 µM) of 0.937 and a relative viability (NCI-H1944; first compound 0.006325 µM) of 0.884. The relative viability (NCI-H1944; first compound 0.02 µM) was 0.653, the relative viability (NCI-H1944; first compound 0.06325 µM) was 0.767 and the relative viability (NCI-H1944; first compound 0.2 µM) was 0.419. The relative viability (NCI-H2085; first compound 0.002 µM) was 1.19, the relative viability (NCI-H2085; first compound 0.006325 µM) was 0.896 and the relative viability (NCI-H2085; first compound 0.02 µM) was 1.07. It also gave a relative viability (NCI-H2085; first compound 0.06325 µM) of 0.603, a relative viability (NCI-H2085; first compound 0.2 µM) of 0.457 and a relative viability (NCI-H2087; first compound 0.002 µM) of 1.11. For the same compound, the relative viability (NCI-H2087; first compound 0.006325 µM) was 1.1, the relative viability (NCI-H2087; first compound 0.02 µM) was 1.37 and the relative viability (NCI-H2087; first compound 0.06325 µM) was 0.118. It also gave a relative viability (NCI-H2087; first compound 0.2 µM) of 0.113, a relative viability (NCI-H2126; first compound 0.002 µM) of 0.865 and a relative viability (NCI-H2126; first compound 0.006325 µM) of 1.07. It also gave a relative viability (NCI-H2126; first compound 0.02 µM) of 0.882, a relative viability (NCI-H2126; first compound 0.06325 µM) of 0.589 and a relative viability (NCI-H2126; first compound 0.2 µM) of 0.207. For the same compound, the relative viability (NCI-H3122; first compound 0.002 µM) was 1.07, the relative viability (NCI-H3122; first compound 0.006325 µM) was 0.887 and the relative viability (NCI-H3122; first compound 0.02 µM) was 0.925. It also gave a relative viability (NCI-H3122; first compound 0.06325 µM) of 0.0893, a relative viability (NCI-H3122; first compound 0.2 µM) of 0.0769 and a relative viability (NCI-H441; first compound 0.002 µM) of 0.927. The relative viability (NCI-H441; first compound 0.006325 µM) was 0.92, the relative viability (NCI-H441; first compound 0.02 µM) was 1.51 and the relative viability (NCI-H441; first compound 0.06325 µM) was 0.196. For the same compound, the relative viability (NCI-H441; first compound 0.2 µM) was 0.149, the relative viability (NCI-H596; first compound 0.002 µM) was 0.868 and the relative viability (NCI-H596; first compound 0.006325 µM) was 0.78. It also gave a relative viability (NCI-H596; first compound 0.02 µM) of 0.695, a relative viability (NCI-H596; first compound 0.06325 µM) of 0.787 and a relative viability (NCI-H596; first compound 0.2 µM) of 0.783. The relative viability (NCI-H661; first compound 0.002 µM) was 1.11, the relative viability (NCI-H661; first compound 0.006325 µM) was 0.992 and the relative viability (NCI-H661; first compound 0.02 µM) was 0.922. It also gave a relative viability (NCI-H661; first compound 0.06325 µM) of 0.597, a relative viability (NCI-H661; first compound 0.2 µM) of 0.301 and a relative viability (PC-14; first compound 0.002 µM) of 0.967. It also gave a relative viability (PC-14; first compound 0.006325 µM) of 0.882, a relative viability (PC-14; first compound 0.02 µM) of 0.945 and a relative viability (PC-14; first compound 0.06325 µM) of 0.567. The relative viability (PC-14; first compound 0.2 µM) was 0.125.
